Data: patent US20190070170A1, “METHOD OF S[…]-1” (Macau University of Science and Technology, priority 2017, published 2019)

Tests used:
[1] = previous studies (Evans 1994; Werner et al. 1992); cited from earlier work
[2] = tested on: mPGES-1; test: mPGES-1 protein expression in hind paws of CIA DBA/1 mice; format: in vivo; conditions: SIN 100 mg/kg i.p. or MTX 10 mg/kg/week p.o.
Description: Female DBA/1 mice (8-9 weeks old) were purchased from Shanghai SiLaike (SLAC) Laboratory Animal Company (Shanghai, China) and fed with a chow diet and water at room temperature. Equal volume of complete Freuend's adjuvant (CFA) and Bovine Type II Collagen (CII) were mixed and emulsified using a homogenizer (13,000 rpm) on ice. On day 0, DBA/1 mice were immunized by injecting 50 μl of CII in CFA in the tail, approximately 2 cm from the base of the tail. […] The incidence of joint swelling in each group was recorded every two days since drug treatment. […]
Frozen paws were pulverized in liquid nitrogen using a stainless steel mortar and pestle, then re-suspended in 8 volumes of ice-cold PBS from Invitrogen (San Diego, Calif., USA) with 2.6 mM DTT from Promega (Madison, Wis., USA) and 2×Complete Protease Inhibitor mixture from Roche (Mannheim, Germany), and homogenized on ice bath using a tissue homogenizer from T25 digital, IKA (Stanfen, Germany) at 10,000 rpm/min for 5 min. […] The protein concentrations were measured using a Bio-Rad protein assay kit (Hercules, Calif., USA). […]
Whole-cell and nuclear proteins were obtained using RIPA lysis buffer (CST, Boston, Mass., USA) and Nuclear and Cytoplasmic Extraction Reagents kit from Thermo Scientific (Asheville, N.C., USA), respectively. […] The levels of protein expression were measured using Odyssey v3.0 software from Li-COR (Lincoln, Nebr., USA).

[3] = tested on: collagen-induced arthritis; test: Collagen-II induced arthritis (CIA) in DBA/1 mice; format: in vivo; conditions: CIA DBA/1 mice; MTX 10 mg/kg/week p.o.
Description: Female DBA/1 mice (8-9 weeks old) were purchased from Shanghai SiLaike (SLAC) Laboratory Animal Company (Shanghai, China) and fed with a chow diet and water at room temperature. Equal volume of complete Freuend's adjuvant (CFA) and Bovine Type II Collagen (CII) were mixed and emulsified using a homogenizer (13,000 rpm) on ice. On day 0, DBA/1 mice were immunized by injecting 50 μl of CII in CFA in the tail, approximately 2 cm from the base of the tail. After injection, on day 18, mice with one or more than one paw inflamed were chosen and randomly divided into model group, SIN (100 mg/kg, i.p.) treatment group and MTX (10 mg/kg/week, p.o) treatment group, the mice without immunization were used as normal control. On day 21, these chosen mice were boosted through injecting the same volume of CII in IFA same as the day 0 immunization procedure. The incidence of joint swelling in each group was recorded every two days since drug treatment. Paw thickness (at the ankle joints of the hind paws) of each mouse was obtained by using vernier caliper to record the severity of paw swelling.
Arthritis score of each paw was evaluated every two days during experiment with the following criteria: • 0: no evidence of erythema and swelling; • 1: erythema and mild swelling confirmed to the tarsals or ankle joint; • 2: erythema and mild swelling extending from the ankle to the tarsal joints; • 3: erythema and moderate swelling extending from the ankle to metatarsal joints; and • 4: erythema and severe swelling encompass the ankle, foot and digits, or ankylosis of the limb.
The score of each paw was summed for a score of 0-16 for each mouse. Mice were then sacrificed and hind paws were removed and freshly frozen in liquid nitrogen and stored at −80° C. until used.

Compound	cardiac side effects [1]	mPGES-1 protein expression in inflamed hind paws [2]	arthritis in CIA mice [3]
C[C@@H]1C[C@H]2[C@@H]3CCC4=CC(=O)C=C[C@]4(C)[C@@]3(F)[C@@H](O)C[C@]2(C)[C@@]1(O)C(=O)CO [DEX, Dexamethasone]	faster heart rates, transient absolute myocardial hypertrophy and increase in systemic blood pressure		
CN(Cc1cnc2nc(N)nc(N)c2n1)c1ccc(C(=O)N[C@@H](CCC(=O)O)C(=O)O)cc1 [MTX, methotrexate, reference compound]		no observable effects	no observable effects
